Where a name gives a salt, the structure may show the parent alone.

One experiment deals with T1, human a-thrombin (Homo sapiens, UniProt P00734).
T1 construct: human a-thrombin
Briefly: In vitro assay for determining proteinase inhibition (thrombin Ki). The format is biochemical. The settings on record: Table 2; 25° C., pH 7.4; read-out: Ki (thr). Here is the method: In vitro assay for determining proteinase inhibition Assays of human a-thrombin and human trypsin were performed at 25° C. in 0.05M TRIS buffer pH 7.4, 0.15M NaCl, 0.1% PEG. Trypsin assays also contained 1 mM CaCl2. In assays wherein rates of hydrolysis of a p-nitroanilide (pna) substrate were determined, a Thermomax 96-well plate reader was used to measure (at 405 nm) the time dependent appearance of p-nitroaniline. […] Activity assays were performed by diluting a stock solution of substrate at least tenfold to a final concentration 0.5 Km into a solution containing enzyme or enzyme equilibrated with inhibitor. Times required to achieve equilibration between enzyme and inhibitor were determined in control experiments. Initial velocities of product formation in the absence (Vo) or presence of inhibitor (Vi) were measured. Assuming competitive inhibition, and that unity is negligible compared Km /[S], […] (where [S], [I], and e respectively represent the total concentrations, of substrate, inhibitor and enzyme), the equilibrium constant (Ki) for dissociation of the inhibitor from the enzyme can be obtained from the dependence of Vo /Vi on [I] shown in equation 1.
In general, Ki refers to the equilibrium dissociation constant of an inhibitor or competing ligand from its target. Take `c1ccc(COc2ccc(CNc3ccncc3)cc2)cc1` [N-4-(4-benzyloxybenzyl)aminopyridine]: the Ki is over 1000 nM.
On to `c1cc(NCc2ccc(NCC3CCCCC3)cc2)ccn1`, for which the Ki was over 1000 nM.

The experiment is the same for the next values; noted with them: Table 3; 25° C., pH 7.4; read-out: Ki(th).
Take `CC(C)Cc1cc(CNc2ccncc2)ccc1OCC1CCCCC1`: the Ki turned out to be 1500 nM.
Take `CCCc1cc(CNc2ccncc2)ccc1OC(Cc1ccccc1)C1CC1` (centres unmarked): the Ki stood at 1300 nM.
As for `Oc1cc(OCC2CCCCC2)ccc1CNc1ccncc1`, the Ki was 1600 nM.
Take `CCc1cc(CNc2ccncc2)ccc1OCC1CCCCC1` [4-{[3-ethyl-4-(cyclohexylmethyloxy)phenyl]methylamino}pyridine]: the Ki was 640 nM.
The same measure, in the same setting: the result for `CCCc1cc(CNc2ccncc2)cc(CO)c1OCC1CCCCC1` reads 3800 nM; that for `CCCc1cc(CNc2ccncc2)ccc1OCC1CCCCCC1`, 740 nM.

Still in this experiment, the particulars now being: Table 4; 25° C., pH 7.4; read-out: Ki (thr).
As for `CNC(=O)c1cc(CNc2ccncc2)ccc1OCC1CCCCC1`, the Ki is over 10000 nM.
On to `CCCc1cc(CN(CC)c2ccncc2)ccc1OCC1CCCCC1`, for which the Ki was over 10000 nM.

The same experiment, now with this note: Table 5; 25° C., pH 7.4; read-out: Ki(thr).
As for `CCc1cc(S(=O)(=O)N2CCN(C(=N)N)CC2)ccc1OCC1CCCCC1` [N-((4-cyclohexylmethyloxy)-3-ethyl-phenylsulfonyl)-N'-aminomethyliminopiperazine], the Ki lay in the range of 100 to 1000 nM.
Take `N=C(N)N1CCN(S(=O)(=O)c2ccc(OCc3ccccc3)cc2)CC1` [N-((4-benzyloxy)phenylsulfonyl)-N'-aminomethyliminopiperazine]: the Ki lay in the range of 1000 to 10000 nM.

The same experiment, now with this note: Table 6; 25° C., pH 7.4; read-out: Ki(thr).
Turning to `N=C(N)c1ccc(Cc2ccc(OCc3ccccc3)cc2)cc1` [4-{[4-(Phenylmethyloxy)phenyl]methyl}benzamidine hydrochloride], the Ki came out at 390 nM.
Regarding `Cc1cc(Cc2ccc(C(=N)N)cc2)ccc1OCC1CCCCC1`, the Ki came out at 102 nM.
Take `CCCc1cc(Cc2ccc(C(=N)N)cc2)ccc1OC(C(C)C)C1CCCCC1` (centres unmarked): the Ki is 280 nM.
The same measure, in the same setting: next, `Cc1cc(Cc2ccc(C(=N)N)cc2)ccc1OC(C(C)C)C1CCCCC1` (centres unmarked): 20 nM.

Still in this experiment, the particulars now being: Table I; 25° C., pH 7.4; read-out: Ki (thr).
With `Nc1cc[n+](Cc2ccc(OCc3ccccc3)cn2)cc1`, the Ki is over 1000 nM.
On the same count and under the same terms, next, `Nc1cc[n+](Cc2ccc(OC(CCc3ccccc3)c3ccccc3)cc2)cc1` (centres unmarked) [4-amino-1-[4-(1,3-diphenyl-1-propoxy)benzyl]pyridinium bromide]: 100 to 1000 nM; `Nc1cc[n+](Cc2ccc(OCc3ccccc3)nc2)cc1`: over 1000 nM; `Nc1cc[n+](Cc2ccc(OCc3ccccc3)c(OCc3ccccc3)c2)cc1`: over 1000 nM.

The record behind these values is patent publication US5872138A, “Thrombin inhibitors” (Merck & Co., Inc., priority 1997, dated 1999).
